From article PMC7058083, “Structural basis of ligand binding modes at the human formyl peptide receptor 2” (Nature Communications, 2020)
Substitutions are numbered along the chain they refer to. Residues, ends and D or L forms follow the SMILES beside them. *: point of attachment. For = O=C*

Experiments:
Test in all cases: Competition binding of fMLFK with WK(FITC)YMVm, flow cytometry on HEK293F cells
[1] = target: T1, wild-type (WT) and mutant FPR2 (Homo sapiens, UniProt P25090, F292A); conditions: FPR2 F292A; mean ± s.e.m., n=3; SEM
T1 construct: expressed in transfected cells; host or cells: HEK293F
T1 sequence (P25090 1-351 F292A): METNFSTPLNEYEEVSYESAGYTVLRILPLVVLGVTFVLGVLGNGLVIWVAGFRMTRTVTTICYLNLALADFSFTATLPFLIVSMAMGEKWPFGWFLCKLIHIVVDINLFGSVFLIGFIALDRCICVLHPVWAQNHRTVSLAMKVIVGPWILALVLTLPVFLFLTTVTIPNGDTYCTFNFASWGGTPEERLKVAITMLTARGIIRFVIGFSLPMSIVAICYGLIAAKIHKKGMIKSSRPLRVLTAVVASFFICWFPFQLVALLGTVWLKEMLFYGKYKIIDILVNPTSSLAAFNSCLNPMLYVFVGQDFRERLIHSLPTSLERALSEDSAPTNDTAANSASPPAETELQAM
Protocol: (§1) Flag-tagged wild-type and mutant FPR2s were cloned into the pTT5 vector and expressed in HEK293F cells. The cells were harvested, and washed with Hanks’ Balanced Salt Solution (HBSS) buffer supplemented with 0.5% bovine serum albumin and 20 mM HEPES, pH 7.4. The cells were then resuspended in the same buffer to the final concentration of 1 × 10^6 cells per ml. The cell-surface expression was measured as mentioned above. […] Mean fluorescent intensity of each well was then read by a FCM (flow cytometry) reader (Millipore). […] For competitive binding of fMLFK, cells were plated in 96-well plates (100,000 cells per well), and incubated with WK(FITC)YMVm at 4 °C for 1 h. The following concentrations of WK(FITC)YMVm were used: 10 nM (wild type, L81^2.60F, E89G, and V105^3.32A), 30 nM (D281^7.32G), 40 nM (H102^3.29F, V160^4.60A, L268^ECL3A, N285^7.36A, and F292^7.43A), and 100 nM (L164^4.64A and T177A). Then increasing concentrations of fMLFK (100 nM–1 mM) were added, and incubated for another 1 h on ice. Mean fluorescent intensity values were measured by flow cytometry. Data were analyzed using Prism 7.0.

[2] = target: T2, wild-type (WT) and mutant FPR2 (Homo sapiens, UniProt P25090, D281G); conditions: FPR2 D281G; mean ± s.e.m., n=3; SEM
T2 construct: expressed in transfected cells; host or cells: HEK293F
T2 sequence (P25090 1-351 D281G): T1 sequence (P25090 1-351 F292A) with D281G, A292F
Protocol: as §1

[3] = target: T3, wild-type (WT) and mutant FPR2 (Homo sapiens, UniProt P25090, L164A); conditions: FPR2 L164A; mean ± s.e.m., n=3; SEM
T3 construct: expressed in transfected cells; host or cells: HEK293F
T3 sequence (P25090 1-351 L164A): T1 sequence (P25090 1-351 F292A) with L164A, A292F
Protocol: as §1

[4] = target: T4, wild-type (WT) and mutant FPR2 (Homo sapiens, UniProt P25090, E89G); conditions: FPR2 E89G; mean ± s.e.m., n=3; SEM
T4 construct: expressed in transfected cells; host or cells: HEK293F
T4 sequence (P25090 1-351 E89G): T1 sequence (P25090 1-351 F292A) with E89G, A292F
Protocol: as §1

[5] = target: T5, wild-type (WT) and mutant FPR2 (Homo sapiens, UniProt P25090, T177A); conditions: FPR2 T177A; mean ± s.e.m., n=4; SEM
T5 construct: expressed in transfected cells; host or cells: HEK293F
T5 sequence (P25090 1-351 T177A): T1 sequence (P25090 1-351 F292A) with T177A, A292F
Protocol: as §1

SMILES: CSCC[C@H](NC=O)C(=O)N[C@@H](CC(C)C)C(=O)N[C@@H](Cc1ccccc1)C(=O)N[C@@H](CCCCN)C(=O)O [fMLFK] (For-MLFK-OH)
- pKi, competition binding [1]: 4.54 ± 0.11
- pKi, competition binding [2]: 4.66 ± 0.16
- pKi, competition binding [3]: 4.16 ± 0.25
- pKi, competition binding [4]: 3.49 ± 0.31
- pKi, competition binding [5]: 3.97 ± 0.21
